Reference: PubChem BioAssay AID1346 (Sanford-Burnham Center for Chemical Genomics, 2008)
Activity calls are given as the source filed them.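 How the source made its calls: active means compounds whose cell survival under thapsigargin stays above the level of untreated control cells; inactive means the rest, which was every compound here.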

Test system: PC12 rat cells, thapsigargin death, ATPlite luminescence, 24 h
Assay: ER stress death rescue in rat PC12 cells – cell-based, undifferentiated PC12, rat pheochromocytoma, ATP luminescence, SAR follow-up (AID 1346)
Conditions: at 25 µM, stronger effect = higher value
[1] = measured here: survival at 0.25 uM thapsigargin
[2] = measured here: survival at 1 uM thapsigargin

| Compound | survival | survival [1] | survival [2] |
| --- | --- | --- | --- |
| COc1ccc(C2CC(=O)C3=C(C2)Nc2ccccc2NC3c2cccc(Br)c2)cc1OC (stereo not drawn) | 31% (inactive) | 25% | 21% |
| CCOc1cc(C2Nc3ccccc3NC3=C2C(=O)CC(c2ccc(OC)cc2)C3)cc(Cl)c1O (stereo not drawn) | 26% (inactive) | 38% | 35% |
| COc1ccc(C2CC(=O)C3=C(C2)Nc2ccccc2NC3c2ccccc2C(F)(F)F)cc1OC (stereo not drawn) | 30% (inactive) | 26% | 24% |
| CCOc1cccc(C2Nc3ccccc3NC3=C2C(=O)CC(c2ccc(OC)cc2)C3)c1 (stereo not drawn) | 30% (inactive) | 18% | 14% |
| CC1(C)CC(=O)C2=C(C1)Nc1ccccc1NC2c1ccc(-c2ccccc2)cc1 (stereo not drawn) | 37% (inactive) | 33% | 29% |
| O=C1CC(c2ccccc2)CC2=C1C(c1c(F)cccc1Cl)Nc1ccccc1N2 (stereo not drawn) | 22% (inactive) | 34% | 24% |
| CCCOc1ccc(C2Nc3ccccc3NC3=C2C(=O)CC(c2ccc(OC)c(OC)c2)C3)cc1 (stereo not drawn) | 25% (inactive) | 28% | 26% |
| CSc1ccc(C2Nc3ccccc3NC3=C2C(=O)CC(c2ccccc2)C3)cc1 (stereo not drawn) | 31% (inactive) | 23% | 19% |
| COc1ccc(C2CC(=O)C3=C(C2)Nc2ccccc2NC3c2cc(C)ccc2C)cc1 (stereo not drawn) | 25% (inactive) | 27% | 26% |
| COc1ccc(C2CC(=O)C3=C(C2)Nc2ccccc2NC3c2cccc(C(F)(F)F)c2)cc1OC (stereo not drawn) | 26% (inactive) | 25% | 23% |
| COc1ccc(C2CC(=O)C3=C(C2)Nc2ccccc2NC3c2cccc(Oc3ccccc3)c2)cc1OC (stereo not drawn) | 49% (inactive) | 29% | 28% |
